In US9120749B2, “Quinoline derivatives and MELK inhibitors containing the same” (ONCOTHERAPY SCIENCE, INC., priority 2010, dated 2015) one finds IC50 data, which are given here for 17 compounds.

A word on the IC50: it is the concentration that inhibits the measured activity by half.

One test relates to 22Rv1 cells. The experiment in a line: Cell-based assay: anti-proliferative activity, Cell Counting Kit-8, 72 hours (22Rv1). The following applies: Homo sapiens.
Another test concerns the target MELK (Homo sapiens, UniProt Q14680). The test can be described thus: Kinase assay: MELK activity, phosphorylation of FITC-labeled histone H3 peptide measured by IMAP fluorescence polarization. Format: biochemical. Particulars: MELK kinase assay, IMAP fluorescence polarization, 50 micro-M ATP; read-out: IC50 (μM) (kinase assay). In outline:
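A FITC-labelled histone H3 peptide served as substrate, with compounds serially diluted to 1% DMSO final. Reactions were stopped with three volumes of IMAP progressive binding solution. After 0.5 h at room temperature, fluorescence polarization was read.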
A general note: Polarisation of emitted light reports the rotation of a fluorescent probe.

Another test relates to DU4475 cells. The experiment in a line: Cell-based assay: anti-proliferative activity, Cell Counting Kit-8, 72 hours (DU4475). Particulars: Homo sapiens, DU-4475. For orientation: Tetrazolium dyes change colour on reduction, which living cells bring about.
The subject of another test is T47D cells. The experiment in a line: Cell-based assay: anti-proliferative activity, Cell Counting Kit-8, 72 hours (T47D). Particulars: Homo sapiens, T47D, 72 h. The procedure, abridged: (§1)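 T47D, A549 and BT-549 cells, with MELK-negative HT-1197 as control (MELK status checked by western blot), seeded at 2,000–3,000 cells/well. Growth measured by CCK-8 72 hours after inhibitor exposure; IC50 values calculated.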

The next test deals with A549 cells. The experiment in a line: Cell-based assay: anti-proliferative activity, Cell Counting Kit-8, 72 hours (A549). The following applies: Homo sapiens, A549, 72 h, 72 hours. The procedure, abridged: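 A549 cells seeded in 96-well plates and exposed to candidate inhibitors for 72 hours. Growth measured with Cell Counting Kit-8; IC50 values calculated from the dose response.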

A further test concerns HT-1197 cells. The test can be described thus: Cell-based assay: anti-proliferative activity, Cell Counting Kit-8, 72 hours (HT-1197, negative control without MELK expression). Particulars: Homo sapiens, HT1197, 72 h, HT1197 cells (negative control), 72 hours. In outline:
as §1

Counter-ions that a name gives are not always drawn.

Sequence of MELK (Q14680 whole entry, looked up): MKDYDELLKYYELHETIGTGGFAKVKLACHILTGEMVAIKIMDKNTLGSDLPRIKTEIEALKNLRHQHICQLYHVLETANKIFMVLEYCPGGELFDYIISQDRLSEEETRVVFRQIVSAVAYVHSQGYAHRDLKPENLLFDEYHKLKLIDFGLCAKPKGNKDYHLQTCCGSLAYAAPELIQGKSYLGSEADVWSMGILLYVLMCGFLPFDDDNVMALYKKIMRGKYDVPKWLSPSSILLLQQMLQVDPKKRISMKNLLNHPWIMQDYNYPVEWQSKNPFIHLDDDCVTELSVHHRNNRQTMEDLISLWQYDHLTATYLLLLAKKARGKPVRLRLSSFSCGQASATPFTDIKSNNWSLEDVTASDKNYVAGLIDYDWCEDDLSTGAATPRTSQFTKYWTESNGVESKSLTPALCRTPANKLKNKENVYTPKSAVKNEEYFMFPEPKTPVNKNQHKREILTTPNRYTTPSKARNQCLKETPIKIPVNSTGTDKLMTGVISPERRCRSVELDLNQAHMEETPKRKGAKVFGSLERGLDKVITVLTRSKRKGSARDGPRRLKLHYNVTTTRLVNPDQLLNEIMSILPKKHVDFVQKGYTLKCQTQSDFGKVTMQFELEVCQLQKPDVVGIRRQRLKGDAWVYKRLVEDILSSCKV

Consider `CS(=O)(=O)c1cnc2ccc(-c3cc(F)c(O)c(Cl)c3)cc2c1Nc1cccc(CCN2CCCC2)c1` [Example 879, 2-chloro-6-fluoro-4-(3-(methylsulfonyl)-4-((3-(2-(pyrrolidin-1-yl)ethyl)phenyl)amino)quinolin-6-yl)phenol hydrochloride], for which the concentration for half-maximal inhibition (IC50) in the test with 22Rv1 cells is 3 µM; at MELK, 0.011 µM; in the test with DU4475 cells, 0.9 µM; in the test with T47D cells, 1.1 µM; with A549 cells it was 3.8 µM; in the test on HT-1197 cells it was 9 µM.
Regarding `CC(=O)c1cnc2ccc(-c3cc(F)c(O)c(Cl)c3)cc2c1Nc1cncc(CCN2CCCC2)c1` [Example 880, 1-(6-(3-chloro-5-fluoro-4-hydroxyphenyl)-4-((5-(2-(pyrrolidin-1-yl)ethyl)pyridin-3-yl)amino)quinolin-3-yl)ethanone hydrochloride], the IC50 was 7.4 µM in the test on 22Rv1 cells; 0.04 µM at MELK; 0.96 µM in the test on DU4475 cells; 3.1 µM in the test on T47D cells; 1.8 µM in the test with A549 cells; 46 µM with HT-1197 cells.
For `O=C(c1cnc2ccc(-c3cc(F)c(O)c(Cl)c3)cc2c1Nc1cncc(CCN2CCCC2)c1)C1CC1` [Example 882, (6-(3-chloro-5-fluoro-4-hydroxyphenyl)-4-((5-(2-(pyrrolidin-1-yl)ethyl)pyridin-3-yl)amino)quinolin-3-yl)(cyclopropyl)methanone], the IC50 in the test on 22Rv1 cells turned out to be 3.1 µM; on MELK, 0.019 µM; with DU4475 cells it was 0.15 µM; in the test on T47D cells it was 100 µM; in the test with A549 cells, 0.27 µM; with HT-1197 cells, 100 µM.
In the case of `CN(C)CCOc1ccc(Nc2c(S(C)(=O)=O)cnc3ccc(-c4cc(Cl)c(O)c(Cl)c4)cc23)cn1` [Example 884, 2,6-dichloro-4-(4-((6-(2-(dimethylamino)ethoxy)pyridin-3-yl)amino)-3-(methylsulfonyl)quinolin-6-yl)phenol hydrochloride], the IC50 in the test on 22Rv1 cells stood at 4.1 µM; on MELK, 0.0035 µM; in the test with DU4475 cells, 0.51 µM; in the test with T47D cells it was 0.91 µM; with A549 cells it was 2.1 µM; with HT-1197 cells, 13 µM.
For `CN(C)CCOc1ccc(Nc2c(S(C)(=O)=O)cnc3ccc(-c4cc(F)c(O)c(Cl)c4)cc23)cn1` [Example 885, 2-chloro-4-(4-((6-(2-(dimethylamino)ethoxy)pyridin-3-yl)amino)-3-(methylsulfonyl)quinolin-6-yl)-6-fluorophenol hydrochloride], the IC50 in the test with 22Rv1 cells is 2.5 µM; at MELK, 0.0083 µM; with DU4475 cells, 0.62 µM; with T47D cells, 0.7 µM; in the test with A549 cells, 3 µM; in the test with HT-1197 cells it was 10 µM.
Consider `CC(=O)c1cnc2ccc(-c3cc(Cl)c(O)c(Cl)c3)cc2c1N[C@H]1CC[C@H](NC(=O)[C@H](C)N)CC1` [Example 886], for which the IC50 in the test on 22Rv1 cells worked out at 0.088 µM; on MELK, 0.00066 µM; with DU4475 cells, 0.016 µM; with T47D cells it was 0.045 µM; in the test with A549 cells, 0.64 µM; in the test with HT-1197 cells it was 11 µM.
Take `CN(C)C1CCN(c2ccc(Nc3c(S(C)(=O)=O)cnc4ccc(-c5cc(F)c(O)c(Cl)c5)cc34)cn2)C1` (stereo not drawn) [Example 889, 2-chloro-4-(4-((6-(3-(dimethylamino)pyrrolidin-1-yl)pyridin-3-yl)amino)-3-(methylsulfonyl)quinolin-6-yl)-6-fluorophenol hydrochloride]: the IC50 was 1.8 µM in the test on 22Rv1 cells; 0.0092 µM at MELK; 1.2 µM with DU4475 cells; 1.5 µM with T47D cells; 2.5 µM in the test on A549 cells; 12 µM with HT-1197 cells.
`CS(=O)(=O)c1cnc2ccc(-c3cc(F)c(O)c(Cl)c3)cc2c1N[C@H]1CC[C@H](CN2CCCC2)CC1` [Example 891, 2-chloro-6-fluoro-4-(3-(methylsulfonyl)-4-((1R,4R)-4-(pyrrolidin-1-ylmethyl)cyclohexyl)amino)quinolin-6-yl)phenol hydrochloride]: the IC50 came out at 0.92 µM with 22Rv1 cells; 0.0095 µM on MELK; 0.46 µM with DU4475 cells; 0.73 µM in the test on T47D cells; 1.3 µM in the test with A549 cells; 2.4 µM in the test on HT-1197 cells.
Consider `CC(=O)c1cnc2ccc(-c3cc(Cl)c(O)c(Cl)c3)cc2c1N[C@H]1CC[C@H](C(=O)NCCN(C)C)CC1` [Example 892, (1r,4r)-4-((3-acetyl-6-(3,5-dichloro-4-hydroxyphenyl)quinolin-4-yl)amino)-N-(2-(dimethylamino)ethyl)cyclo-hexanecarboxamide hydrochloride], for which the IC50 is 1.1 µM with 22Rv1 cells; 0.0023 µM on MELK; 0.4 µM with DU4475 cells; 0.59 µM in the test with T47D cells; 6.3 µM in the test on A549 cells; 100 µM in the test with HT-1197 cells.
With `CC(=O)c1cnc2ccc(-c3cc(F)c(O)c(Cl)c3)cc2c1N[C@H]1CC[C@H](C(=O)NCCN(C)C)CC1` [Example 893, (1r,4r)-4-((3-acetyl-6-(3-chloro-5-fluoro-4-hydroxyphenyl)quinolin-4-yl)amino)-N-(2-(dimethylamino)ethyl) cyclohexanecarboxamide hydrochloride], the IC50 with 22Rv1 cells worked out at 1.6 µM; on MELK, 0.0052 µM; in the test on DU4475 cells it was 0.67 µM; in the test with T47D cells it was 0.59 µM; in the test with A549 cells, 100 µM; in the test on HT-1197 cells, 100 µM.
As to `CC(=O)c1cnc2ccc(-c3ccc4nc[nH]c4c3)cc2c1Nc1cnn(C2CCN(C)CC2)c1` [Example 895, 1-(6-(1H-benzo[d]imidazol-6-yl)-4-((1-(1-methylpiperidin-4-yl)-1H-pyrazol-4-yl)amino)quinolin-3-yl)ethanone hydrochloride], the half-maximal inhibitory concentration (IC50) was 2.2 µM in the test on 22Rv1 cells; 0.065 µM on MELK; 9.1 µM in the test with DU4475 cells; 0.94 µM in the test with T47D cells; 4 µM with A549 cells; 9.3 µM in the test with HT-1197 cells.
For `CC(=O)c1cnc2ccc(-c3cc(Cl)c(O)c(Cl)c3)cc2c1Nc1cc(CCN2CCCC2)cnc1C` [Example 897, 1-(6-(3,5-dichloro-4-hydroxyphenyl)-4-((2-methyl-5-(2-(pyrrolidin-1-yl)ethyl)pyridin-3-yl)amino)quinolin-3-yl)ethanone], the IC50 worked out at 11 µM in the test with 22Rv1 cells; 0.021 µM at MELK; 8.8 µM in the test with DU4475 cells; 4.5 µM in the test with T47D cells; 8.5 µM in the test on A549 cells; 71 µM in the test with HT-1197 cells.
Regarding `CC(=O)c1cnc2ccc(-c3cc(Cl)c(O)c(Cl)c3)cc2c1N[C@H]1CC[C@H](C(=O)N2CCN(C)CC2)CC1` [Example 898, 1-(6-(3,5-dichloro-4-hydroxyphenyl)-4-((1R,4R)-4-(4-methylpiperazine-1-carbonyl)cyclohexyl)amino) quinolin-3-yl)ethanone hydrochloride], the IC50 is 0.78 µM in the test on 22Rv1 cells; 0.0044 µM at MELK; 0.96 µM in the test with DU4475 cells; 0.44 µM in the test on T47D cells; 0.87 µM in the test with A549 cells; 3 µM in the test on HT-1197 cells.
With `CN1CCC(n2cc(Nc3c(S(C)(=O)=O)cnc4ccc(-c5cc(Cl)c(O)c(Cl)c5)cc34)cn2)CC1` [Example 899, 2,6-dichloro-4-(4-((1-(1-methyl-piperidin-4-yl)-1H-pyrazol-4-yl)amino)-3-(methylsulfonyl)quinolin-6-yl)phenol hydrochloride], the IC50 came out at 1.5 µM in the test with 22Rv1 cells; 0.0017 µM on MELK; 0.26 µM in the test on DU4475 cells; 1.6 µM in the test on T47D cells; 4 µM in the test on A549 cells; 10 µM in the test on HT-1197 cells.
As for `CN1CCC(n2cc(Nc3c(S(C)(=O)=O)cnc4ccc(-c5cc(F)c(O)c(Cl)c5)cc34)cn2)CC1` [Example 900, 2-chloro-6-fluoro-4-(4-((1-(1-methyl-piperidin-4-yl)-1H-pyrazol-4-yl)amino)-3-(methylsulfonyl)quinolin-6-yl)phenol hydrochloride], the concentration for half-maximal inhibition (IC50) stood at 3.1 µM with 22Rv1 cells; 0.0032 µM on MELK; 0.54 µM in the test with DU4475 cells; 1.6 µM with T47D cells; 10 µM in the test on A549 cells; 10 µM with HT-1197 cells.
On to `CC(=O)c1cnc2ccc(-c3ccc4nc[nH]c4c3)cc2c1Nc1ccc(N2CCN(C)CC2)nc1` [Example 901, 1-(6-(1H-benzo[d]imidazol-6-yl)-4-((6-(4-methylpiperazin-1-yl)pyridin-3-yl)amino)quinolin-3-yl)ethanone hydrochloride], for which the IC50 in the test with 22Rv1 cells turned out to be 2.1 µM; on MELK, 0.1 µM; in the test on DU4475 cells, 9.5 µM; with T47D cells, 1.2 µM; with A549 cells, 2.3 µM; with HT-1197 cells, 9.1 µM.
Take `CC(=O)c1cnc2ccc(-c3ccc4nc[nH]c4c3)cc2c1Nc1ccc(OCCN(C)C)nc1` [Example 902, 1-(6-(1H-benzo[d]imidazol-6-yl)-4-((6-(2-(dimethylamino)ethoxy)pyridin-3-yl)amino)quinolin-3-yl) ethanone hydrochloride]: the half-inhibitory concentration (IC50) with 22Rv1 cells is 3.1 µM; on MELK, 0.042 µM; in the test on DU4475 cells, 14 µM; in the test on T47D cells it was 3.3 µM; in the test on A549 cells it was 2.9 µM; with HT-1197 cells it was 12 µM.
